Measurements reported in patent US8518944B2, “Compounds as casein kinase inhibitors” (Pfizer Inc., priority 2009, dated 2013).
Counter-ions that a name gives are not always drawn.

What was measured:
[1] = target: CK1ε wild type enzyme (Homo sapiens, UniProt P49674); experiment: CK1ε kinase assay (Kinase-Glo luminescence); type: biochemical; conditions: ATP 10 μM, CK1ε wild type enzyme 2.5 nM, peptide substrate 42 μM, 25° C., 70 minutes; values marked * are geometric mean of 5-16 determinations; read-out: CKIε IC50 (nM), geometric mean of 2-4 determinations
Protocol: The CK1ε kinase assay was performed in a standard buffer containing ATP at 10 μM, CK1ε wild type enzyme at 2.5 nM, and 42 μM concentration of the peptide substrate PLSRTLpSVASLPGL (Flotow et al., 1990). The reaction was incubated at 25° C. for 70 minutes. Enzyme inhibition was measured in the presence of 1 μL of the CK1ε inhibitor, or 4% DMSO. Detection was carried out as described for the Kinase-Glo Assay (Promega). Luminescent output was measured on the PerkinElmer EnVision plate reader (PerkinElmer, Waltham, Mass.).

[2] = target: CK1δ (Homo sapiens, UniProt P48730); experiment: CK1δ kinase assay (Kinase-Glo luminescence); type: biochemical; conditions: ATP 10 μM, CK1δ enzyme 2 nM, peptide substrate 42 μM, 25° C., 85 minutes; values marked * are geometric mean of 5-16 determinations; read-out: CKIδ IC50 (nM), geometric mean of 2-4 determinations
Protocol: The CK1δ kinase assay was performed in a standard buffer containing ATP at 10 μM, CK1δ enzyme at 2 nM, and the peptide substrate PLSRTLpSVASLPGL at 42 μM. The reaction was incubated at 25° C. for 85 minutes. Enzyme inhibition was performed in the presence of either 1 μL of CK1δ inhibitor, or 4% DMSO. Detection of luminescent output on a PerkinElmer EnVision plate reader (PerkinElmer, Waltham, Mass.) was performed as described for the Kinase-Glo Assay (Promega).

Chain of CK1ε wild type enzyme (P49674 whole entry): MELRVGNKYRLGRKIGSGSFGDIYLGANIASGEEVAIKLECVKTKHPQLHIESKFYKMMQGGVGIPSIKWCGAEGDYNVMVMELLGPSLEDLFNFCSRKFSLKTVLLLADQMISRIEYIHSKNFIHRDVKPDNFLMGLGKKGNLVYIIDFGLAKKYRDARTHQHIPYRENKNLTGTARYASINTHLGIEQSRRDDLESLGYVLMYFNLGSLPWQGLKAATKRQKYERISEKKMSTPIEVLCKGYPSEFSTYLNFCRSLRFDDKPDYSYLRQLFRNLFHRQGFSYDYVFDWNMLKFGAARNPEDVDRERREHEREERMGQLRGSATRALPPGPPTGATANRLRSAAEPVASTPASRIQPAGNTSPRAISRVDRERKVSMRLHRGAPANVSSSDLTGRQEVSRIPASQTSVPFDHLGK
Chain of CK1δ (P48730 whole entry): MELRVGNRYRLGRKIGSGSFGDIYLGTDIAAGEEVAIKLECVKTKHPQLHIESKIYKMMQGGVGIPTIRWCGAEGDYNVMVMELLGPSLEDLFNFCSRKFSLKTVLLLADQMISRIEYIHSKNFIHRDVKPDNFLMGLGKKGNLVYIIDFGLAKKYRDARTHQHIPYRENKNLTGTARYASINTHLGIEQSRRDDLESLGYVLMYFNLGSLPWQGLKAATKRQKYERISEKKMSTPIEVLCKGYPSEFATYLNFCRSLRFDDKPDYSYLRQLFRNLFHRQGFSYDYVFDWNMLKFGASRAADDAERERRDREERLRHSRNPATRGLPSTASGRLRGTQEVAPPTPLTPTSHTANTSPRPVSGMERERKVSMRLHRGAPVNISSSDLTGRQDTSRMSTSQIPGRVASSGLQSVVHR

Row | Structure (SMILES) | IC50 [1] | IC50 [2]
1 | Cc1cccc(CN2CCC(n3cnc(-c4ccc(F)cc4)c3-c3ccnc(N)n3)C2)n1 (centres unmarked) [Example 30, 4-[4-(4-fluorophenyl)-1-{1-[(6-methylpyridin-2-yl)methyl]pyrrolidin-3-yl}-1H-imidazol-5-yl]pyrimidin-2-amine] | 266 nM | 91.6 nM
2 | Cc1cnc(CN2CCC(n3cnc(-c4ccc(F)cc4)c3-c3ccnc(N)n3)C2)c(F)c1 (centres unmarked) [Example 31, 4-[1-{1-[(3-fluoro-5-methylpyridin-2-yl)methyl]pyrrolidin-3-yl}-4-(4-fluorophenyl)-1H-imidazol-5-yl]pyrimidin-2-amine] | 165 nM | 47.6 nM
3 | Cc1ncccc1CN1CCC(n2cnc(-c3ccc(F)cc3)c2-c2ccnc(N)n2)C1 (centres unmarked) [Example 32, 4-[4-(4-fluorophenyl)-1-{1-[(2-methylpyridin-3-yl)methyl]pyrrolidin-3-yl}-1H-imidazol-5-yl]pyrimidin-2-amine] | 150 nM | 61.1 nM
4 | Cc1cc(CN2CCC(n3cnc(-c4ccc(F)cc4)c3-c3ccnc(N)n3)C2)no1 (centres unmarked) [Example 33, 4-[4-(4-fluorophenyl)-1-{1-[(5-methylisoxazol-3-yl)methyl]pyrrolidin-3-yl}-1H-imidazol-5-yl]pyrimidin-2-amine] | 140 nM | 55.1 nM
5 | Nc1nccc(-c2c(-c3ccc(F)cc3)ncn2C2CCN(Cc3ccncc3)C2)n1 (centres unmarked) [Example 34, 4-{4-(4-fluorophenyl)-1-[1-(pyridin-4-ylmethyl)pyrrolidin-3-yl]-1H-imidazol-5-yl}pyrimidin-2-amine] | 211 nM | 76.6 nM
6 | Nc1nccc(-c2c(-c3ccc(F)cc3)ncn2C2CCN(Cc3ccc4nccnc4c3)C2)n1 (centres unmarked) [Example 35, 4-{4-(4-fluorophenyl)-1-[1-(quinoxalin-6-ylmethyl)pyrrolidin-3-yl]-1H-imidazol-5-yl}pyrimidin-2-amine] | 170 nM | 67.8 nM
7 | Nc1nccc(-c2c(-c3ccc(F)cc3)ncn2C2CCN(Cc3cncc4ccccc34)C2)n1 (centres unmarked) [Example 36, 4-{4-(4-fluorophenyl)-1-[1-(isoquinolin-4-ylmethyl)pyrrolidin-3-yl]-1H-imidazol-5-yl}pyrimidin-2-amine] | 140 nM | 56.3 nM
8 | Cc1cc(C)c(CN2CCC(n3cnc(-c4ccc(F)cc4)c3-c3ccnc(N)n3)C2)cn1 (centres unmarked) [Example 37, 4-[1-{1-[(4,6-dimethylpyridin-3-yl)methyl]pyrrolidin-3-yl}-4-(4-fluorophenyl)-1H-imidazol-5-yl]pyrimidin-2-amine] | 124 nM | 46.6 nM
9 | Nc1nccc(-c2c(-c3ccc(F)cc3)ncn2C2CCN(Cc3ccnc4cccnc34)C2)n1 (centres unmarked) [Example 38, 4-{4-{4-fluorophenyl)-1-[1-(1,5-naphthyridin-4-ylmethyl)pyrrolidin-3-yl]-1H-imidazol-5-yl}pyrimidin-2-amine] | 158 nM | 55.8 nM
10 | Fc1ccc(-c2ncn(C3CCN(Cc4cn5ccccc5n4)C3)c2-c2ccncn2)cc1 (centres unmarked) [Example 39, 2-({3-[4-(4-fluoro-phenyl)-5-pyrimidin-4-yl-1H-imidazol-1-yl]pyrrolidin-1-yl}methyl)imidazo[1,2-a]pyridine, trifluoroacetate salt] | 644 nM | 211 nM
11 | Fc1ccc(-c2ncn(C3CCN(Cc4cnc5ccnn5c4)C3)c2-c2ccncn2)cc1 (centres unmarked) [Example 40, 6-({3-[4-(4-fluorophenyl)-5-pyrimidin-4-yl-1H-imidazol-1-yl]pyrrolidin-1-yl}methyl)pyrazolo[1,5-a]pyrimidine, trifluoroacetate salt] | 798 nM | 178 nM
12 | Cc1c(CN2CCC(n3cnc(-c4ccc(F)cc4)c3-c3ccncn3)C2)nc2ccccn12 (centres unmarked) [Example 41, 2-({3-[4-(4-fluorophenyl)-5-pyrimidin-4-yl-1H-imidazol-1-yl]pyrrolidin-1-yl}methyl)-3-methylimidazo[1,2-a]pyridine, trifluoroacetate salt] | 1990 nM | 595 nM
13 | COCCc1ncc(CN2CCC(n3cnc(-c4ccc(F)cc4)c3-c3ccncn3)C2)cn1 (centres unmarked) [Example 42, 5-({3-[4-(4-fluorophenyl)-5-pyrimidin-4-yl-1H-imidazol-1-yl]pyrrolidin-1-yl}methyl)-2-(2-methoxyethyl)pyrimidine, trifluoroacetate salt] | 1530 nM | 679 nM
